Measured values from publication PMC8253220, “Molecular design, synthesis and in vitro biological evaluation of thienopyrimidine–hydroxamic acids as chimeric kinase HDAC inhibitors: a challenging approach to combat cancer” (Journal of Enzyme Inhibition and Medicinal Chemistry, 2021).
Several values for one entry are separate records, joined by “and”; a condition that tells them apart may be missing. Identical values can stand only once.

Tests used:
Assay in all cases: NCI one-dose screen
Format in all cases: cell-based, human
786-0 = conditions: Renal 786-0, 10 µM single dose
Outline: (§1)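 One concentration (10 μM) applied to each line of the full NCI-60 panel; percent growth compared against untreated cells.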

ACHN = conditions: Renal ACHN, 10 µM single dose
Outline: as §1

BT-549 = conditions: Breast BT-549, 10 µM single dose
Outline: as §1

CAKI-1 = conditions: Renal CAKI-1, 10 µM single dose
Outline: as §1

CCRF-CEM = conditions: Leukemia CCRF-CEM, 10 µM single dose
Outline: as §1

COLO 205 = conditions: Colon COLO 205, 10 µM single dose
Outline: as §1

DU-145 = conditions: Prostate DU-145, 10 µM single dose
Outline: as §1

EKVX = conditions: NSCLC EKVX, 10 µM single dose
Outline: (§2)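 Compounds were tested at a single dose of 10 μM across the full NCI-60 cell line panel. Growth was expressed as percent growth relative to untreated control cells, reported as percent inhibition.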

HCC-2998 = conditions: Colon HCC-2998, 10 µM single dose
Outline: as §1

HCT-116 = conditions: Colon HCT-116, 10 µM single dose
Outline: as §1

HCT-15 = conditions: Colon HCT-15, 10 µM single dose
Outline: as §1

HL-60(TB) = conditions: Leukemia HL-60(TB), 10 µM single dose
Outline: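 At 10 μM, a single concentration, compounds were evaluated for antiproliferative effect in the NCI 60-line screen, with growth expressed relative to untreated control cells.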

IGROV1 = conditions: Ovarian IGROV1, 10 µM single dose
Outline: as §1

K-562 = conditions: Leukemia K-562, 10 µM single dose
Outline: as §1

KM12 = conditions: Colon KM12, 10 µM single dose
Outline: (§3)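 Treated at 10 μM (single dose) within the NCI full 60-line panel. Inhibition % computed from growth against untreated control.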

LOX IMVI = conditions: Melanoma LOX IMVI, 10 µM single dose
Outline: as §1

M14 = conditions: Melanoma M14, 10 µM single dose
Outline: as §1

MCF7 = conditions: Breast MCF7, 10 µM single dose
Outline: as §3

MDA-MB-231/ATCC = conditions: Breast MDA-MB-231/ATCC, 10 µM single dose
Outline: as §1

MDA-MB-468 = conditions: for Growth Percent: Breast MDA-MB-468, 10 µM single dose
Outline: as §3

NCI-H23 = conditions: NSCLC NCI-H23, 10 µM single dose
Outline: as §3

NCI-H460 = conditions: NSCLC NCI-H460, 10 µM single dose
Outline: as §1

NCI-H522 = conditions: NSCLC NCI-H522, 10 µM single dose
Outline: as §2

NCI/ADR-RES = conditions: Ovarian NCI/ADR-RES, 10 µM single dose
Outline: as §1

OVCAR-3 = conditions: Ovarian OVCAR-3, 10 µM single dose
Outline: as §1

OVCAR-4 = conditions: Ovarian OVCAR-4, 10 µM single dose
Outline: as §1

OVCAR-5 = conditions: Ovarian OVCAR-5, 10 µM single dose
Outline: as §1

RPMI-8226 = conditions: Leukemia RPMI-8226, 10 µM single dose
Outline: as §1

RXF 393 = conditions: Renal RXF 393, 10 µM single dose
Outline: as §1

SF-268 = conditions: CNS SF-268, 10 µM single dose
Outline: as §3

SF-539 = conditions: CNS SF-539, 10 µM single dose
Outline: as §3

SK-MEL-28 = conditions: Melanoma SK-MEL-28, 10 µM single dose
Outline: (§4)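 Single 10 μM dose, NCI-60 panel; read-out = % growth vs untreated controls → % inhibition.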

SK-MEL-2 = conditions: Melanoma SK-MEL-2, 10 µM single dose
Outline: as §4

SK-MEL-5 = conditions: Melanoma SK-MEL-5, 10 µM single dose
Outline: as §1

SNB-19 = conditions: CNS SNB-19, 10 µM single dose
Outline: as §4

SNB-75 = conditions: CNS SNB-75, 10 µM single dose
Outline: as §2

U251 = conditions: CNS U251, 10 µM single dose
Outline: as §2

Structure (SMILES) | Growth Percent (786-0) | Growth Percent (ACHN) | Growth Percent (BT-549) | Growth Percent (CAKI-1) | Growth Percent (CCRF-CEM) | Growth Percent (COLO 205) | Growth Percent (DU-145) | Growth Percent (EKVX) | Growth Percent (HCC-2998) | Growth Percent (HCT-116) | Growth Percent (HCT-15) | Growth Percent (HL-60(TB)) | Growth Percent (IGROV1) | Growth Percent (K-562) | Growth Percent (KM12) | Growth Percent (LOX IMVI) | Growth Percent (M14) | Growth Percent (MCF7) | Growth Percent (MDA-MB-231/ATCC) | Growth Percent (MDA-MB-468) | also measured
Cc1c(C(=O)NCCCC(=O)NO)sc2ncnc(Nc3ccccc3)c12 [Compound 20b, N-(4-(hydroxyamino)-4-oxobutyl)-5-methyl-4-(phenylamino)thieno[2,3-d]pyrimidine-6-carboxamide] | 113.5% and 113.55% | 103.8% and 103.87% | 128.8% and 128.88% | 96.9% and 96.93% | 102.7% and 102.73% | 106.5% and 106.57% | 111% and 111.21% | 89.6% and 89.65% | 104.7% and 104.78% | 104.9% and 104.93% | 100.2% and 100.23% | 104.1% and 104.16% | 107.3% and 107.35% | 104.9% and 104.96% | 101.4% and 101.41% | 96.5% and 96.54% | 112.3% and 112.35% | 92.1% and 92.13% | 110.9% and 110.91% | 98.0% and 98.03% | Growth Percent (NCI-H23): 99.6% and 99.63%; Growth Percent (NCI-H460): 99.4% and 99.46%; Growth Percent (NCI-H522): 89.7% and 89.77%; Growth Percent (NCI/ADR-RES): 100.6% and 100.67%; Growth Percent (OVCAR-3): 109.4% and 109.49%; Growth Percent (OVCAR-4): 105.4% and 105.47%; Growth Percent (OVCAR-5): 100.2% and 100.23%; Growth Percent (RPMI-8226): 102.2%; Growth Percent (RXF 393): 98.6% and 98.66%; Growth Percent (SF-268): 97.1% and 97.16%; Growth Percent (SF-539): 96.9% and 96.91%; Growth Percent (SK-MEL-28): 115.5% and 115.55%; Growth Percent (SK-MEL-2): 102.9%; Growth Percent (SK-MEL-5): 97.6% and 97.62%; Growth Percent (SNB-19): 97.5% and 97.59%; Growth Percent (SNB-75): 95.6%; Growth Percent (U251): 98.2% and 98.23%
Cc1c(C(=O)NCCCC(=O)NO)sc2ncnc(Nc3ccc(Cl)cc3)c12 [Compound 20c, 4–(4-chlorophenylamino)-N-(4-(hydroxyamino)-4-oxobutyl)-5-methylthieno[2,3-d]pyrimidine-6-carboxamide] | 83.0% and 83.06% | 105.1% and 105.18% | 116.5% | 93.0% and 93.08% | 108.0% and 108.09% | 117.8% and 117.81% | 116.8% and 116.86% | 90.5% and 90.52% | 102.4% and 102.48% | 108.2% and 108.21% | 99.0% and 99.06% | 103.4% and 103.41% | 81.1% and 81.14% | 108.0% | 101.7% and 101.78% | 99.2% and 99.24% | 107.6% and 107.62% | 91.4% and 91.44% | 95.4% and 95.46% | 110.9% and 110.91% | Growth Percent (NCI-H23): 94.9% and 94.98%; Growth Percent (NCI-H460): 101.9% and 101.95%; Growth Percent (NCI-H522): 91.2% and 91.22%; Growth Percent (NCI/ADR-RES): 100.5% and 100.58%; Growth Percent (OVCAR-3): 106.5% and 106.57%; Growth Percent (OVCAR-4): 109.4%; Growth Percent (OVCAR-5): 109.8% and 109.86%; Growth Percent (RPMI-8226): 103.6% and 103.64%; Growth Percent (RXF 393): 109.5% and 109.55%; Growth Percent (SF-268): 97.2% and 97.29%; Growth Percent (SF-539): 95.3% and 95.36%; Growth Percent (SK-MEL-28): 112.3% and 112.39%; Growth Percent (SK-MEL-2): 106.2% and 106.25%; Growth Percent (SK-MEL-5): 100.0%; Growth Percent (SNB-19): 99.1% and 99.11%; Growth Percent (SNB-75): 79.1% and 79.17%; Growth Percent (U251): 103.1% and 103.12%
Cc1c(C(=O)NCCCC(=O)NO)sc2ncnc(Nc3ccc(F)c(Cl)c3)c12 [Compound 20d, 4–(3-chloro-4-fluorophenylamino)-N-(4-(hydroxyamino)-4-oxobutyl)-5-methylthieno[2,3-d]pyrimidine-6-carboxamide] | 104.6% and 104.67% | 102.2% and 102.28% | 117.9% and 117.96% | 92.1% and 92.19% | 107.9% and 107.95% | 119.1% and 119.14% | 109.9% and 109.99% | 94.4% and 94.41% | 104.1% and 104.19% | 105.9% and 105.97% | 99.6% and 99.67% | 104.6% and 104.62% | 98.9% and 98.94% | 117.4% and 117.47% | 101.5% and 101.54% | 96.3% | 102.6% | 91.4% and 91.48% | 99.7% and 99.77% | 83.8% and 83.88% | inhibition at 10 µM (MDA-MB-468; Homo sapiens, breast MDA-MB-468, 10 μM): 16.2%; Growth Percent (NCI-H23): 98.9% and 98.94%; Growth Percent (NCI-H460): 101.8% and 101.82%; Growth Percent (NCI-H522): 92.6% and 92.67%; Growth Percent (NCI/ADR-RES): 104.1% and 104.13%; Growth Percent (OVCAR-3): 108.4% and 108.42%; Growth Percent (OVCAR-4): 104.8% and 104.88%; Growth Percent (OVCAR-5): 100.1% and 100.15%; Growth Percent (RPMI-8226): 108.7% and 108.75%; Growth Percent (RXF 393): 102.5% and 102.57%; Growth Percent (SF-268): 95.2%; Growth Percent (SF-539): 100.8% and 100.82%; Growth Percent (SK-MEL-28): 111.4% and 111.42%; Growth Percent (SK-MEL-2): 113.2% and 113.22%; Growth Percent (SK-MEL-5): 100.4% and 100.45%; Growth Percent (SNB-19): 98.1% and 98.16%; Growth Percent (SNB-75): 90.4% and 90.45%; Growth Percent (U251): 99.1% and 99.18%
